From publication PMC7584652 (Nature Communications, 2020) come the findings set out here.

In one data set the target is Hpt1 (Bacillus anthracis, UniProt A0A6L7HDS1). The note with it: labelled compound ([5′-α-32P]); 10 mM Tris pH 7.5, 100 mM NaCl, 5 mM MgCl2, room temperature.
In another data set the target is T1, Rel (RelA) (Bacillus subtilis, UniProt O54408).
T1 construct: purified
As to the kind of experiment: […] TLC hydrolysis time course. The data set is classed as biochemical. Conditions: 200 nM enzyme, 100 μM substrate, 25 mM Tris-HCl pH 7.5, 1 mM MnCl2, 37 °C.

The next data set has as its target Xpt (Bacillus anthracis, UniProt Q81SQ5). The note with it: labelled compound ([5′-α-32P]); 10 mM Tris pH 7.5, 100 mM NaCl, 5 mM MgCl2, room temperature.
In another data set the target is Gmk (Bacillus anthracis, UniProt Q81WG7). In kind it is binding.
Sequence of Gmk (Q81WG7 whole entry, looked up): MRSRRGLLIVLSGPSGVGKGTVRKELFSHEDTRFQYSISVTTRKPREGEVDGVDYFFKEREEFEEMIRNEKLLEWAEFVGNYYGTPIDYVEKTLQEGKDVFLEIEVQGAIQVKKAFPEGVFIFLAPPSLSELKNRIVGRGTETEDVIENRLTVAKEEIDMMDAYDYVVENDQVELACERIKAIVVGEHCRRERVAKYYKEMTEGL
The target in another data set is Der (Bacillus anthracis, UniProt Q81SW9). The note with it: labelled compound ([5′-α-32P]); 10 mM Tris pH 7.5, 100 mM NaCl, 5 mM MgCl2, room temperature.
Sequence of Der (Q81SW9 whole entry, looked up): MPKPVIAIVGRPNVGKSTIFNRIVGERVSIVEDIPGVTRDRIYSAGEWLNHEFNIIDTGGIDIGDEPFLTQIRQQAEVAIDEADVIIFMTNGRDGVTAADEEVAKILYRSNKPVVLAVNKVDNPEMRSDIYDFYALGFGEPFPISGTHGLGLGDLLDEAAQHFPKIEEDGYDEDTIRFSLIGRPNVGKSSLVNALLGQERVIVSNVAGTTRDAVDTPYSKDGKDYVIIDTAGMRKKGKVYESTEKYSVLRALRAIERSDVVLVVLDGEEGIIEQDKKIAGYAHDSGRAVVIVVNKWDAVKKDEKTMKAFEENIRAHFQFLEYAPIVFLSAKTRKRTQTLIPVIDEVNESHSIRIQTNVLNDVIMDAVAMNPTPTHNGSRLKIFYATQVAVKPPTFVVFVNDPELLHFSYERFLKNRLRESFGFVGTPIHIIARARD
The next data set addresses Obg (Bacillus anthracis, UniProt Q81LF0). Put plainly: biochemical.
Data set [1] has as its target T2, translation elongation factor G (EF-G) (Bacillus anthracis, UniProt Q81VT3).
T2 construct: gene fusA
As to the kind of experiment: biochemical.

Substrate in data set [2]: Nc1nc2c(ncn2[C@@H]2O[C@H](COP(=O)(O)OP(=O)(O)O)[C@@H](OP(=O)(O)OP(=O)(O)O)[C@H]2O)c(=O)[nH]1
Put plainly: purified protein. The note with it: 100 nM enzyme, 40 mM Tris-HCl pH 7.5, 100 mM NaCl, 10 mM MgCl2, 37 °C, Hill n fixed to 1.

Substrate in data set [3]: Nc1nc2c(ncn2[C@@H]2O[C@H](COP(=O)(O)OP(=O)(O)OP(=O)(O)O)[C@@H](OP(=O)(O)OP(=O)(O)O)[C@H]2O)c(=O)[nH]1
Put plainly: purified protein. The note with it: 100 nM enzyme, 40 mM Tris-HCl pH 7.5, 100 mM NaCl, 10 mM MgCl2, 37 °C, cooperative, fitted with Hill equation.

What is called Kd is the constant that tells how readily two partners part at equilibrium. Low readings indicate higher affinity, high ones lower affinity. The term Km denotes the concentration of substrate that gives half-maximal velocity. For orientation: kcat means the maximal rate divided by the concentration of active sites.

T1 sequence (O54408 whole entry): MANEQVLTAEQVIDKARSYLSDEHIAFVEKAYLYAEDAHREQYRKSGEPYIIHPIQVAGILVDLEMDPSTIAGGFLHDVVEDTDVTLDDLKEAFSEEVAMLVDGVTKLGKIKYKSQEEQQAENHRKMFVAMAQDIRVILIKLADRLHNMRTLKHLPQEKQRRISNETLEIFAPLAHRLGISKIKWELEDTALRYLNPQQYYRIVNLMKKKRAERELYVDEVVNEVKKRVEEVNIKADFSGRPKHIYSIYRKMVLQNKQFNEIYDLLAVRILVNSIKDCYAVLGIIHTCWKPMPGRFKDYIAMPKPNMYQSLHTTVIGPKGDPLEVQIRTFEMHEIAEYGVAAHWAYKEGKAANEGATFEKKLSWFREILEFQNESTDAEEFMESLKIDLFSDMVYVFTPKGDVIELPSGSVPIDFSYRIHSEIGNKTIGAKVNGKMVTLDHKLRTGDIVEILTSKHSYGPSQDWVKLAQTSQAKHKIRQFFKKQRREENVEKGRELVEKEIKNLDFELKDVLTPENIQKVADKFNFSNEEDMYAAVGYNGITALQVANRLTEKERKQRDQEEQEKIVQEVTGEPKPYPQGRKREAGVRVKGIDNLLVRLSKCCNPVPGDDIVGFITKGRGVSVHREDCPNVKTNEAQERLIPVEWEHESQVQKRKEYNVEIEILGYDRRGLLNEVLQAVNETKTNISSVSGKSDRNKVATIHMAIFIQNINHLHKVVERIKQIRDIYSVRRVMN
Sequence of Obg (Q81LF0 whole entry, looked up): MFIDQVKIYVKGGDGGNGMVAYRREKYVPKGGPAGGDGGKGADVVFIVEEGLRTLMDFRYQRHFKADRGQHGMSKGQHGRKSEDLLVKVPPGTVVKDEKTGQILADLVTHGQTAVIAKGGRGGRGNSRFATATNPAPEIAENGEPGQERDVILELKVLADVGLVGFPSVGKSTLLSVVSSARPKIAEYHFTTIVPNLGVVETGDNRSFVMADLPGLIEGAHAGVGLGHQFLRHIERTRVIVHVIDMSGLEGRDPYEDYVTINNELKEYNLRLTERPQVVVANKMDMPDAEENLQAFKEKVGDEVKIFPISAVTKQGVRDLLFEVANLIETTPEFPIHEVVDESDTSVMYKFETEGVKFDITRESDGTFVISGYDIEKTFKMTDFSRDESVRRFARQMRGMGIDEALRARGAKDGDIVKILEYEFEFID
T2 sequence (Q81VT3 whole entry, looked up): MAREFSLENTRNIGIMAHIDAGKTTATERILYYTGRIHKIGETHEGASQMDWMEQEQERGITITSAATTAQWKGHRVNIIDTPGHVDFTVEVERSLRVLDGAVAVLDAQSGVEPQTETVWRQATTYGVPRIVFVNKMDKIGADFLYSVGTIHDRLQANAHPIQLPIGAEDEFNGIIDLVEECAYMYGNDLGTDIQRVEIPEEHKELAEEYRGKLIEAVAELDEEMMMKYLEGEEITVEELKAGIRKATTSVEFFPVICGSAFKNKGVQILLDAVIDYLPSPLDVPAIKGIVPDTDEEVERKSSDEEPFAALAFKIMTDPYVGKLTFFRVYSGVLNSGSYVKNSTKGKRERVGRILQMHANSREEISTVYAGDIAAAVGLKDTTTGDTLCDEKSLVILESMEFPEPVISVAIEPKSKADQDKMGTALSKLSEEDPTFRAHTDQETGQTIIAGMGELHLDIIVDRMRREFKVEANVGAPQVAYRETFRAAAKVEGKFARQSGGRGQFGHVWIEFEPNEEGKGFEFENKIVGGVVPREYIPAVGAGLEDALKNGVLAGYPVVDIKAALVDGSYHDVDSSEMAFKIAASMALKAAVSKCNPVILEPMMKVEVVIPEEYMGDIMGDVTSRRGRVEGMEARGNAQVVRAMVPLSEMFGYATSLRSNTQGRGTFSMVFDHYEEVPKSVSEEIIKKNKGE
Sequence of Xpt (Q81SQ5 whole entry, looked up): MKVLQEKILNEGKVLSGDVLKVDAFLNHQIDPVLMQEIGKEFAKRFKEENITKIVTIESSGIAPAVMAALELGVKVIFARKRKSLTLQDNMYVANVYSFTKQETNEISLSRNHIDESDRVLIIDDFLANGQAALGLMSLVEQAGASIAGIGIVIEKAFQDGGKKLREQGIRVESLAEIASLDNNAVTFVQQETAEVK
Sequence of Hpt1 (A0A6L7HDS1 1-180): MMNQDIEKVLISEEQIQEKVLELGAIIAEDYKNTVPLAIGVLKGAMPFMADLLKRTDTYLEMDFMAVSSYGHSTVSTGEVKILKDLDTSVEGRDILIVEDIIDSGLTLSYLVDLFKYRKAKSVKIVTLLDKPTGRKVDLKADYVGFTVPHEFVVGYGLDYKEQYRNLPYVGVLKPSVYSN

In the case of `Nc1nc2c(ncn2[C@@H]2O[C@H](COP(=O)(O)O)[C@@H](OP(=O)(O)OP(=O)(O)O)[C@H]2O)c(=O)[nH]1` [pGpp, guanosine-5′-monophosphate-3′-diphosphate], the “DRaCALA, 1 μM purified protein” value on Hpt1 is “confirmed strong pGpp binding to guanosine nucleotide synthesis proteins (Hpt1, Gmk, and Xpt)”; on Xpt, “confirmed strong pGpp binding to guanosine nucleotide synthesis proteins (Hpt1, Gmk, and Xpt)”; on Gmk, “confirmed strong pGpp binding to guanosine nucleotide synthesis proteins (Hpt1, Gmk, and Xpt)”. Further, the “32P TLC hydrolysis time course” value at Rel (RelA) is recorded as “pGpp was hydrolyzed more rapidly than (p)ppGpp”.
Take `Nc1nc2c(ncn2[C@@H]2O[C@H](COP(=O)(O)OP(=O)(O)O)[C@@H](OP(=O)(O)OP(=O)(O)O)[C@H]2O)c(=O)[nH]1` [ppGpp]: the “DRaCALA, 1 μM purified protein” value on Der is recorded as “GTPases involved in ribosome biogenesis (HflX, Obg, Der) bind ppGpp but not pGpp”. Moreover, the “32P TLC hydrolysis time course” value on Rel (RelA) is recorded as “all three nucleotides can be hydrolyzed efficiently by Rel”. For the same molecule, the Kd was determined as 6 ± 2 µM at Obg and 60 ± 8 µM in data set [1].
On to `Nc1nc2c(ncn2[C@@H]2O[C@H](COP(=O)(O)OP(=O)(O)OP(=O)(O)O)[C@@H](OP(=O)(O)OP(=O)(O)O)[C@H]2O)c(=O)[nH]1` [pppGpp], for which the equilibrium dissociation constant (Kd) amounted to 48 ± 7 µM at Obg and 296 ± 50 µM in data set [1].

B1: NahA (YvcI) (Bacillus subtilis subsp. subtilis str. 168) (protein)
chain: MTYLQRVTNCVLQTDDKVLLLQKPRRGWWVAPGGKMESGESVRDSVIREYREETGIYIINPQLKGVFTFIIKDGDHIVSEWMMFTFVADSYTGQNVSESEEGKLQWHDVNDIQNLPMAPGDGHILDFMMKGQGLLHGTFTYTPEFELLSYRLDPQHIK
For B1, in “purified protein [2]”, the Michaelis constant (Km) turned out to be 7.5 ± 2.3 µM and the kcat came out at 1.22 ± 0.17 s⁻¹. For the same molecule, in “purified protein [3]”, the K0.5 is 177.4 ± 0.4 µM and the kcat amounted to 10 ± 0.5 s⁻¹.
